Like-named read-outs stand apart in the source and are kept apart here.
Legend:
HepG2 cell line = test: Cytotoxic activity against human tumor cells line (HepG2); format: cell-based
B. cinerea = test: Spore germination assay, fungicidal activity against B. cinerea; format: cell-based, Botrytis cinerea; settings: Botrytis cinerea, in vitro, n = 3
Experimental: (§1) The fungal pathogens C. lagenarium and B. cinerea was provided by the Agricultural Culture Collection of China (Yangling, Shaanxi, China). C. lagenarium was cultured for 2 weeks at 25 ± 1 °C on potato dextrose agar (PDA) while B. cinerea was cultured at 20 °C on the same medium after being retrieved from the storage tube. Plates were flooded with sterile distilled water, and then conidia were scraped with a glass rod. Mycelial debris was removed by filtration. The spores were harvested and suspended in sterile distilled water containing 0.1% (v/v) Tween 20. The concentration of the spore suspension was adjusted to 1.0 × 10^6 spores/mL with sterilized distilled water following.
(§2) The tested samples (10.0 mg) dissolved in acetone (0.1 mL) were diluted with sterile distilled water to prepare 10.0 mL stock solution, which was further diluted to prepare test solutions in which the final concentration of acetone was <1% (v/v). A series of concentrations of tested samples and one control (1% acetone with sterile distilled water) were separately tested for spore germination of C. lagenarium or B. cinerea. The samples were inoculated with spore suspension of C. lagenarium or B. cinerea containing 1.0 × 10^6 spores/mL. Aliquots of 10 μL of prepared spore suspension were placed on separate glass slides in triplicate. Slides containing the spores were incubated in a moisture chamber at 25 °C for 6~8 h. Each slide was then observed under the microscope for spore germination. Spores were considered to have germinated if the length of the germ tube was at least half the length of the spore. Afterward, spore germination was stopped by applying a drop of lactophenol-cotton blue to the inoculation sites on plates. The numbers of generated spores were counted under a microscope (Olympus BX61, Tokyo, Japan), and the percentage of germinated spores was calculated. Chlorothalonil was used as the positive control.

C. lagenarium = test: Spore germination assay, fungicidal activity against C. lagenarium; format: cell-based, Colletotrichum lagenarium; settings: Colletotrichum orbiculare
Experimental: as §1, §2

[1] = Table 1, from IC50 in μM, read-out: pIC50, C. lagenarium (converted)
[2] = Table 2, fungicidal activity against C. lagenarium used for QSAR, read-out: pIC50 (converted)
[3] = Table 4, experimental, C. lagenarium, read-out: Exp. pIC50 (converted)
[4] = Table 6, read-out: IC50 (μM) (against C. lagenarium)
[5] = in vitro, spore germination, n = 3, read-out: IC50, C. lagenarium

| melting point [°C] | SMILES | IC50 (HepG2 cell line) [µM] | IC50 (B. cinerea) [µM] | IC50 (C. lagenarium; [1]) [µM] | IC50 (C. lagenarium; [2]) [µM] | IC50 (C. lagenarium; [3]) [µM] | IC50 (C. lagenarium; [4]) [µM] | IC50 (C. lagenarium; [5]) [µM] |
| --- | --- | --- | --- | --- | --- | --- | --- | --- |
| 204.5 to 204.8 | C=C1CC(c2cccc(OC(=O)c3ccccc3)c2)OC1=O (stereo not drawn) [Compound 6f, 4-(3-Benzoyloxyphenyl)-2-methylenebutyrolactone] | 18.5 | 102 | 73.1 | 73.1 | 73.1 | 73.1 | 73.1 |
| 178.3 to 178.9 | C=C1CC(c2cccc(OC(=O)c3ccccc3C)c2)OC1=O (stereo not drawn) [Compound 6g, 4-[3-(2-Methylbenzoyloxy)phenyl]-2-methylenebutyrolactone] | 22 | 180 | 159 | 159 | 159 | 159 | 159 |
| 182.6 to 183.3 | C=C1CC(c2cccc(OC(=O)c3ccc(OC)cc3)c2)OC1=O (stereo not drawn) [Compound 6l, 4-[3-(4-Methoxybenzoyloxy)phenyl]-2-methylenebutyrolactone] | 58.6 | 179 | 154 | 154 | 154 | 154 | 154 |

Reference: publication PMC6273913, “New α-Methylene-γ-Butyrolactone Derivatives as Potential Fungicidal Agents: Design, Synthesis and Antifungal Activities” (Molecules, 2016)
